Test results published in patent US10647686B2, “Substituted pyrimidines for preventing or treating cancer and inflammatory diseases” (KOREA RESEARCH INSTITUTE OF CHEMICAL TECHNOLOGY, priority 2016, dated 2020).

Key:
DRAK2 = DRAK2 (Homo sapiens (Human), UniProt O94768); experiment: DRAK2 kinase activity inhibition (ADP-Glo, MRCL3 peptide substrate); format: biochemical; details: for DRAK2 selectivity (DRAK2 versus DRAK1): from Table 4
Procedure: (§1) DRAK1 and DRAK2 recombinant proteins were purchased from SignalChem Inc. To measure the kinase enzyme activity, the ADP-Glo™ kit provided by Promega Inc. was used. Buffer A used in the kinase reaction was composed of 60 mM Tris-Cl (pH 7.5), 30 mM MgCl2 and 0.15% BSA. Just before the experiment, 1 mM DTT was prepared by diluting 1 M solution and added thereto.
(§2) To measure the DRAK1 and DRAK2 activity, the substrate MRCL3 peptide and ATP were mixed with the enzymes. After an appropriate period of time, the reaction product ADP was quantitatively analyzed.
(§3) The buffer solution A was used to make a 3× substrate solution of 3× concentration so that the final concentrations of ATP and MRCL3 peptides were 1 uM, respectively, and 2.5 μl of each solution was dispensed into Optiplate 384 (perkin-elmer) microplate.
(§4) The final concentrations of ATP and MRCL3 peptide were made to be 1 uM respectively by using buffer A, followed by preparing a 3× substrate solution. The prepared substrate solution was distributed in Optiplate 384 (Perkin-Elmer) microplate (2.5 ul/well). Then, the compounds of Examples 1˜39 and the compounds of Comparative Examples 1-6, whose concentrations were tripled by the final concentration were distributed thereto (2.5 ul/well). Lastly, DRAK1 or DRAK2 enzyme solution, properly diluted by using buffer A, was added thereto (2.5 ul/well). Centrifugation was performed at 800 rpm for 1 minute, and then enzyme reaction was induced at 30° C.
(§5) 2 hours later, the enzyme reaction was terminated. To eliminate residual ATP, ADP-Glo™ reagent contained in ADP-Glo™ was added to each well at the concentration of 7.5 ul, which was the same amount as the sum of the previously added reagents, followed by centrifugation at the same RPM and time as the above. Additional reaction was induced at room temperature for 40 minutes. To convert the ADP produced by the kinase activity to ATP, 15 ul of kinase detection buffer was added to each well, followed by centrifugation. Five minutes after the centrifugation was completed, the luminescence value of the reaction product was determined using Envision, and the enzyme activity inhibition effect of the compound was measured. Then, IC50 of each compound was determined using Prism program.
(§6) The compounds of Example 1 and Example 19 were used as the experimental group and the compound of Comparative Example 6 was used as the control.
To evaluate DRAK2 inhibition activity of the compound represented by formula 1 according to the number of n, the experiment was performed with the compounds of Example 1, Example 19, Example 40, Comparative Example 7 and W Comparative Example 8 by the same manner as described in Experimental Example 1, leading to the measurement of IC50 to DRAK2.

DRAK1 = DRAK1 (Homo sapiens (Human), UniProt Q9UEE5); experiment: DRAK1 kinase activity inhibition (ADP-Glo, MRCL3 peptide substrate); format: biochemical
Procedure: as §1, §2, §3, §4, §5, §6

[1] = Table 3, recombinant enzyme, 1 uM ATP, 1 uM MRCL3 peptide, 30° C., 2 hours
[2] = Table 4, Experimental Example 2, DRAK2 selectivity evaluation
[3] = Table 5, Experimental Example 3, according to the number of n

Chain of DRAK2 (O94768 whole entry): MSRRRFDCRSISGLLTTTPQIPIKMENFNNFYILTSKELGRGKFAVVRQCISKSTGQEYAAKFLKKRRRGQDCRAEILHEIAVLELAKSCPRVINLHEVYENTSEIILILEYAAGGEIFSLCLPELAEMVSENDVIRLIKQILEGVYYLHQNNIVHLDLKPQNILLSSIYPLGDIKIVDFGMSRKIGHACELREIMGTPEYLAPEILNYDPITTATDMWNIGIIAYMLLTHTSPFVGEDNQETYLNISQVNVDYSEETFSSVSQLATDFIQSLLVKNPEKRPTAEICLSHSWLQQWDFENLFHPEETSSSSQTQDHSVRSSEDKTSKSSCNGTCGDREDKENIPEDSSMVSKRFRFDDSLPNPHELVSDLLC
Chain of DRAK1 (Q9UEE5 whole entry): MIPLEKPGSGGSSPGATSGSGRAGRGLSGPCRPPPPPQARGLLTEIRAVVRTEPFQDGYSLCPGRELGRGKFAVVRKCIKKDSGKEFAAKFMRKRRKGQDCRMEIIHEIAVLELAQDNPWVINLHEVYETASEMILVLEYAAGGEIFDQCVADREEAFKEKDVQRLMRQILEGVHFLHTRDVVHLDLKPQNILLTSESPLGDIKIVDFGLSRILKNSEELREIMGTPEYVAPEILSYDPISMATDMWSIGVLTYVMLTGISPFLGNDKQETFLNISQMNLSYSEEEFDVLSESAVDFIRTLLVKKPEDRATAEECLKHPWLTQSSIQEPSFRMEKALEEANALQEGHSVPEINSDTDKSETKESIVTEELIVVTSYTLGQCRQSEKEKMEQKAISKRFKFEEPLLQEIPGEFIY

Row | Structure (SMILES) | IC50 (DRAK2; [1]) [nM] | other results
1 | NCCCNc1nc(Nc2ccc(Cl)cc2)ncc1F [Comparative Example 1, N4-(3-aminopropyl)-N2-(4-chlorophenyl)-5-fluoropyrimidine-2,4-diamine, reference compound] | 300 | –
2 | NCCCNc1nc(Nc2ccc(Cl)cc2)ncc1C(F)(F)F [Comparative Example 2, N4-(3-aminopropyl)-N2-(4-chlorophenyl)-5-(trifluoromethyl)pyrimidine-2,4-diamine, reference compound] | 120 | –
3 | COc1cnc(Nc2ccc(Cl)cc2)nc1NCCCN [Comparative Example 3, N4-(3-aminopropyl)-N2-(4-chlorophenyl)-5-methoxypyrimidine-2,4-diamine, reference compound] | 870 | –
4 | NCCCNc1ccnc(Nc2ccc(Cl)cc2)n1 [Comparative Example 4, N4-(3-aminopropyl)-N2-(4-chlorophenyl)pyrimidine-2,4-diamine, reference compound] | 1100 | –
5 | NCCCNc1nc(Nc2ccc(Cl)cc2)ncc1[N+](=O)[O-] [Comparative Example 5, N4-(3-aminopropyl)-N2-(4-chlorophenyl)-5-nitropyrimidine-2,4-diamine, reference compound] | 320 | –
6 | NCCCNc1nc(Nc2ccc(Cl)cc2)ncc1Br [Comparative Example 6, reference compound] | 27 | IC50 (DRAK1; [1]): 40 nM; IC50 (DRAK1; [2]): 40 nM; IC50 (DRAK2; [2]): 27 nM; DRAK2 selectivity (DRAK2 versus DRAK1) (DRAK2; result in words): displayed both DRAK1 and DRAK2 inhibition activity
7 | NCCNc1nc(Nc2ccc(Cl)cc2)ncc1Cl [Comparative Example 7, N4-(2-aminoethyl)-5-chloro-N2-(4-chlorophenyl)pyrimidine-2,4-diamine, reference compound] | – | IC50 (DRAK2; [3]): 110 nM
8 | Cc1cnc(Nc2ccc(Cl)cc2)nc1NCCN [Comparative Example 8, N4-(2-aminoethyl)-N2-(4-chlorophenyl)-5-methylpyrimidine-2,4-diamine, reference compound] | – | IC50 (DRAK2; [3]): 140 nM
9 | NCCCNc1nc(Nc2ccc(Cl)cc2)ncc1Cl [Example 1, N4-(3-aminopropyl)-5-chloro-N2-(4-chlorophenyl)pyrimidine-2,4-diamine] | 38 | IC50 (DRAK1; [1]): 410 nM; IC50 (DRAK1; [2]): 410 nM; IC50 (DRAK2; [2]): 38 nM; IC50 (DRAK2; [3]): 32 nM; DRAK2 selectivity (DRAK2 versus DRAK1) (DRAK2; result in words): excellent DRAK2 selectivity; DRAK2 IC50 compared with Comparative Examples 7 and 8 (n is 0) (DRAK2; result in words, from Table 5): significantly lower IC50
10 | NCCCNc1nc(Nc2cc(Cl)cc(Cl)c2)ncc1Cl [Example 2, N4-(3-aminopropyl)-5-chloro-N2-(3,5-dichlorophenyl)pyrimidine-2,4-diamine] | 26 | –
11 | CC(C)c1ccc(Nc2ncc(Cl)c(NCCCN)n2)cc1 [Example 3, N4-(3-aminopropyl)-5-chloro-N2-(4-isopropylphenyl)pyrimidine-2,4-diamine] | 11 | IC50 (DRAK1; [1]): 240 nM
12 | CCCCCc1ccc(Nc2ncc(Cl)c(NCCCN)n2)cc1 [Example 4, N4-(3-aminopropyl)-5-chloro-N2-(4-pentylphenyl)pyrimidine-2,4-diamine] | 80 | –
13 | CCCCCCCCc1ccc(Nc2ncc(Cl)c(NCCCN)n2)cc1 [Example 5, N4-(3-aminopropyl)-5-chloro-N2-(4-octylphenyl)pyrimidine-2,4-diamine] | 740 | –
14 | Cc1ccc(Nc2ncc(Cl)c(NCCCN)n2)cc1Cl [Example 6, N4-(3-aminopropyl)-5-chloro-N2-(3-chloro-4-methylphenyl)pyrimidine-2,4-diamine] | 24 | IC50 (DRAK1; [1]): 220 nM
15 | NCCCNc1nc(Nc2ccc(F)c(Cl)c2)ncc1Cl [Example 7, N4-(3-aminopropyl)-5-chloro-N2-(3-chloro-4-fluorophenyl)pyrimidine-2,4-diamine] | 70 | IC50 (DRAK1; [1]): 200 nM
16 | NCCCNc1nc(Nc2ccc(Cl)c(Cl)c2)ncc1Cl [Example 8, N4-(3-aminopropyl)-5-chloro-N2-(3,4-dichlorophenyl)pyrimidine-2,4-diamine] | 59 | IC50 (DRAK1; [1]): 310 nM
17 | NCCCNc1nc(Nc2ccc(F)cc2)ncc1Cl [Example 9, N4-(3-aminopropyl)-5-chloro-N2-(4-fluorophenyl)pyrimidine-2,4-diamine] | 19 | IC50 (DRAK1; [1]): 290 nM
18 | NCCCNc1nc(Nc2ccc(Oc3ccccc3)cc2)ncc1Cl [Example 10, N4-(3-aminopropyl)-5-chloro-N2-(4-phenoxyphenyl)pyrimidine-2,4-diamine] | 26 | IC50 (DRAK1; [1]): 180 nM

More lines, main results first:

Row | IC50 (DRAK2; [1]) [nM] | Structure (SMILES) | other results
19 | 44 | CCc1ccc(Nc2ncc(Cl)c(NCCCN)n2)cc1 [Example 11, N4-(3-aminopropyl)-5-chloro-N2-(4-ethylphenyl)pyrimidine-2,4-diamine] | IC50 (DRAK1; [1]): 370 nM
20 | 56 | CCCCCCc1ccc(Nc2ncc(Cl)c(NCCCN)n2)cc1 [Example 12, N4-(3-aminopropyl)-5-chloro-N2-(4-hexylphenyl)pyrimidine-2,4-diamine] | IC50 (DRAK1; [1]): 1900 nM
21 | 19 | NCCCNc1nc(Nc2ccc(C3CCNCC3)cc2)ncc1Cl [Example 26, N4-(3-aminopropyl)-5-chloro-N2-(4-(piperidine-4-yl)phenyl)pyrimidine-2,4-diamine] | –
22 | 98 | Cc1ccc(Nc2ncc(C)c(NCCCN)n2)cc1Cl [Example 27, N4-(3-aminopropyl)-N2-(3-chloro-4-methylphenyl)-5-methylpyrimidine-2,4-diamine] | –
23 | 190 | Cc1cnc(Nc2ccc(F)cc2)nc1NCCCN [Example 28, N4-(3-aminopropyl)-N2-(4-fluorophenyl)-5-methylpyrimidine-2,4-diamine] | –
24 | 100 | Cc1cnc(Nc2ccc(N3CCNCC3)cc2)nc1NCCCN [Example 29, N4-(3-aminopropyl)-5-methyl-N2-(4-(piperazine-1-yl)phenyl)pyrimidine-2,4-diamine] | –
25 | 160 | Cc1cnc(Nc2ccc3c(c2)CCCC3)nc1NCCCN [Example 30, N4-(3-aminopropyl)-5-methyl-N2-(5,6,7,8-tetrahydronaphthalene-2-yl)pyrimidine-2,4-diamine] | –
26 | 180 | Cc1cnc(Nc2ccc(F)c(C(F)(F)F)c2)nc1NCCCN [Example 31, N4-(3-aminopropyl)-N2-(4-fluoro-3-(trifluoromethyl)phenyl)-5-methylpyrimidine-2,4-diamine] | –
27 | 1400 | Cc1cnc(Nc2ccc(Br)c(C(F)(F)F)c2)nc1NCCCN [Example 32, N4-(3-aminopropyl)-N2-(4-bromo-3-(trifluoromethyl)phenyl)-5-methylpyrimidine-2,4-diamine] | –
28 | 490 | Cc1cnc(Nc2ccc(Oc3ccccc3)cc2)nc1NCCCN [Example 33, N4-(3-aminopropyl)-5-methyl-N2-(4-phenoxyphenyl)pyrimidine-2,4-diamine] | –
29 | 340 | Cc1cnc(Nc2ccc(S(=O)(=O)c3ccc([N+](=O)[O-])cc3)cc2)nc1NCCCN [Example 34, N4-(3-aminopropyl)-5-methyl-N2-(4-(4-nitrophenylsulfonyl)phenyl)pyrimidine-2,4-diamine] | –
30 | 89 | Cc1cnc(Nc2ccc(Br)cc2)nc1NCCCN [Example 35, N4-(3-aminopropyl)-N2-(4-bromophenyl)-5-methylpyrimidine-2,4-diamine] | –
31 | 110 | Cc1cnc(Nc2ccc3c(c2)OCCO3)nc1NCCCN [Example 36, N4-(3-aminopropyl)-N2-(2,3-dihydrobenzo[b][1,4]dioxin-6-yl)-5-methylpyrimidine-2,4-diamine] | –
32 | 82 | Cc1ccc(Nc2ncc(C)c(NCCCN)n2)cc1C [Example 37, N4-(3-aminopropyl)-N2-(3,4-dimethylphenyl)-5-methylpyrimidine-2,4-diamine] | –
33 | 35 | Cc1cnc(Nc2ccc(F)c(Cl)c2)nc1NCCCN [Example 38, N4-(3-aminopropyl)-N2-(3-chloro-4-fluorophenyl)-5-methylpyrimidine-2,4-diamine] | –
34 | 75 | Cc1cnc(Nc2ccc(Cl)c(Cl)c2)nc1NCCCN [Example 39, N4-(3-aminopropyl)-N2-(3,4-dichlorophenyl)-5-methylpyrimidine-2,4-diamine] | –
35 | 31 | NCCCCNc1nc(Nc2cc(Cl)cc(Cl)c2)ncc1Cl [Example 41, N4-(4-n-aminobutyl)-N2-(3,5-dichlorophenyl)-5-chloropyrimidine-2,4-diamine] | –
